Source: US8703106B2, “Chlorine dioxide treatment for biological tissue” (priority 2009, dated 2014)
Several values for one entry are separate records, joined by “and”; a condition that tells them apart may be missing. Equal values may be shown once.

Experiments:
[1] = Tooth whitening with multiple contiguous applications, Vita Classic Shade Guide (Example 7); set-up: species or system human; settings: for ΔSVU, Average: average of five teeth; for ΔSVU: nominal 200 ppm (actual 155 ppm) NaCMC gel, pH 5.0, individual teeth A-E, baseline C4
Excerpt: This study was designed to assess the efficacy on tooth whitening of two different regimens of multiple, contiguous applications of a 200 ppm chlorine dioxide gel. Five human extracted teeth (molars) were used in this study. Each tooth was sectioned twice: first at the tooth's cemento-enamel junction to remove the root portion of the tooth; then sectioned mesio-distally to separate the tooth into two, separate buccal and lingual halves. […] The sectioned teeth were then stained in concentrated black tea (cooled to room temperature after brewing) until each tooth accumulated enough stain to be visually graded as “C4” (hut no lighter than “A4”) per the Vita Classic Shade Vision Guide.
After staining, the cut sides of each tooth were sealed with an acrylic polymer (i.e. acrylic-based nail polish). The tooth was then “split” or functionally “divided” into a left and right sides (the tooth was not physically split). To create “dividing line,” a narrow channel was first created down the center of the tooth (running from the occlusal to the gingival or cervical portion of the tooth) using a narrow tungsten carbide or diamond tip dental bur, thereby creating an approximately 0.5 to 1.5-mm deep by 1 to 1.5-mm wide channel on either the buccal or lingual enamel surface of the tooth segment. The channel was etched carefully with a 34-40% phosphoric acid dental etching gel preparation (being careful to confine the gel only to the enamel within the prepared channel). The etching gel was then removed by water rinsing, the Stir face was dried, and a thin, narrow band of enamel-dentin adhesive was then applied carefully only to the enamel within the narrow channel. The material was allowed to dry in ambient air for 1 minute then carefully dried with a gentle stream of compressed air for an additional 10 seconds. The enamel-dentin adhesive was subsequently cured by exposure to a visible light dental curing unit using actinic blue light at an approximate peak wavelength of 470 nm for multiple, 20 second curing increments. In order to fill in the channel and gradually build a “wall” or harrier to separate the left and right half of the lingual surface of the tooth, a thin, narrow layer or band of composite resin dental restorative material was added in several steps and cured with the dental visible blue-light curing unit.
The wall that was built up on each tooth prevents whitening agent applied on the left side of the tooth to migrate into the whitening agent that was applied on the right side of the tooth, and visa versa. In this way, it is possible to compare two different treatment regimens on the same tooth, thereby minimizing the biological diversity among different teeth that may affect whitening efficacy.
Two treatment regimens were tested, both using a nominal 200 ppm chlorine dioxide gel comprising sodium carboxymethylcellulose (NaCMC). The actual concentration of chlorine dioxide was measured and found to be 155 ppm; pH of the composition was 5.0. The general treatment protocol is as follows. […] The 60 ml syringe was used to store the gel during the assay, and for dispensing gel into a 10 ml plastic syringe. The gel in the 10 ml syringe was then dispensed directly onto the tooth section enamel surfaces as follows. At time zero, about 1 to 1.5 ml gel was dispensed onto the enamel surface of each tooth segment attached to the glass microscope slide. The thickness of the resulting gel layer was about 1.5 to 3.0 mm in depth. After dispensing the gel onto the tooth segments, the glass slide was placed in a plastic zippered bag, containing small strips of wet paper towel within the bag to maintain 100% humidity in the bag. The paper towel strips were positioned to eliminate any contact of the plastic bag with the tooth and gel surfaces.
Upon conclusion of a contact epidose, the glass slide was removed from the plastic bag, and the gel was carefully removed with an extra soft bristle toothbrush and a gentle stream of running tap water. […]

[2] = Chlorine dioxide loss in fetal blood serum (FBS) solution; assay type: physicochemical
Method: A series of experiments were conducted to estimate and quantify the effect of blood serum on chlorine dioxide concentration. Solutions of chlorine dioxide and fetal blood serum (FBS) were prepared at different concentrations of chlorine dioxide and FBS, and the chlorine dioxide concentration was tracked using a Spectral Physics UV/Visible spectrophotometer with a direct insertion probe (1 mm path length).
The initial chlorine dioxide concentration was measured using a Hach Model 2400 UV/Vis spectrophotometer. A UV/Vis scan was then measured over the wavelength range of about […] using the direct insertion probe, and this was used to calculate the initial absorbance of the solution. FBS was then added, and UV/Vis scans were run periodically thereafter. The area of the chlorine dioxide absorbance peak was calculated for each scan, and the relative chlorine dioxide concentration at each time was calculated by dividing the area at each time point by the peak area of the initial scan (prior to FBS addition). Relative chlorine dioxide concentration was plotted versus time for each set of chlorine dioxide and FBS concentrations. […] The exponent K2 in the equation is an estimate of the decay rate of chlorine dioxide in the FBS solution. The weight ratio of FBS to chlorine dioxide was calculated by dividing, the mass of FBS added to the solution by the mass of chlorine dioxide in the solution.
(§1) Dosage is given both as the nominal dose based upon the initial chlorine dioxide concentration, and the actual dosage as estimated from the initial chlorine dioxide concentration and the decay relationships described above.
(§2) Columns 3-6 are measured data; columns 7-11 are calculated data. For K2 having a positive sign (such as Samples 20-21), it was assumed that there was insufficient FBS present to cause a material loss of chlorine dioxide. Therefore, for such samples, it was assumed that chlorine dioxide was unchanged over the time of the experiment FIG. 4 is a graph of the results.

[3] = tested on: PA biofilm; assay: Biofilm kill in protein-rich (FBS) environment (Example 3); assay type: cell-based, Pseudomonas aeruginosa; settings: for Log Reduction in Organism Count: PA
Method: (§3) Chlorine dioxide efficacy against biofilm in protein-rich environment A series of experiments were conducted to determine the effect of FBS on the kill of PA. MRSA and mixture PA/MRSA biofilms. Biofilms were grown as described in Example 1, Disks were immersed in 25 ml of FBS solution at double the target FBS concentration, and to that was added 25 ml of chlorine dioxide solution at double the target chlorine dioxide concentration. After the desired contact time, disks were removed from the treatment solutions, neutralized, and plated as described above.
as §1, §2

[4] = tested on: mixed PA/MRSA biofilm; assay: as above; assay type: cell-based, Pseudomonas aeruginosa and Staphylococcus aureus; settings: for Log Reduction in Organism Count: MRSA + PA
Method: as §3, §1, §2

[5] = 30 minutes total exposure, Left: 2 × 15 minutes
[6] = 30 minutes total exposure, Right: 4 × 7.5 minutes
[7] = 60 minutes total exposure, Left: 4 × 15 minutes
[8] = 60 minutes total exposure, Right: 8 × 7.5 minutes

## [O][Cl+][O-] [ClO2, chlorine dioxide]
[1]; [5]
  ΔSVU, Average: 11.4 SVU
  ΔSVU: 12 SVU (3×) and 10 SVU and 11 SVU
[1]; [6]
  ΔSVU, Average: 12.6 SVU
  ΔSVU: 15 SVU and 12 SVU (4×)
[1]; [7]
  ΔSVU, Average: 11.8 SVU
  ΔSVU: 12 SVU (4×) and 11 SVU
[1]; [8]
  ΔSVU, Average: 13.6 SVU
  ΔSVU: 15 SVU (2×) and 14 SVU and 12 SVU (2×)
[1]; nominal dosage 6000 ppm-min (30 minutes × 200 ppm)
  improvement of tooth whitening, four applications compared to two applications: about 10%
[1]; nominal dosage 12,000 ppm-min
  improvement of tooth whitening, eight applications over four applications: about 15%
[2]; 104 mg FBS/mg ClO2, initial 240 ppm, 15.0 min, assumed unchanged
  Final ClO2 Concentration: 240 ppm
[2]; 104 mg FBS/mg ClO2, initial 240 ppm, 30.0 min, assumed unchanged
  Final ClO2 Concentration: 240 ppm
[2]; 104 mg FBS/mg ClO2, initial 240 ppm, 60.0 min, assumed unchanged
  Final ClO2 Concentration: 240 ppm
[2]; 104 mg FBS/mg ClO2, initial 240 ppm, calculated, positive K2 taken as no loss
  Decay rate, K2: 0.0344
[2]; 131 mg FBS/mg ClO2, initial 191 ppm, 15.0 min, calculated
  Final ClO2 Concentration: 107 ppm
[2]; 131 mg FBS/mg ClO2, initial 191 ppm, 40.0 min, calculated
  Final ClO2 Concentration: 87 ppm
[2]; 131 mg FBS/mg ClO2, initial 191 ppm, calculated from K2=-0.00927(FBS/ClO2)+1
  Decay rate, K2: −0.2134
[3]; PA biofilm, with FBS
  corrected dose rate resulting in complete kill: ≥ 2000 ppm-rain
[3]; Sample 27, FBS 131 mg/mg ClO2, 15.0 min, initial 191 ppm, nominal 2865, corrected 2236 ppm-min
  Log Reduction in Organism Count: 7.1 log
[3]; Sample 28, FBS 131 mg/mg ClO2, 40.0 min, initial 191 ppm, nominal 7640, corrected 5559 ppm-min
  Log Reduction in Organism Count: 7.1 log
[3]; Sample 29, FBS 104 mg/mg ClO2, 15.0 min, initial 240 ppm, nominal and corrected 3600 ppm-min
  Log Reduction in Organism Count: 7.1 log
[3]; Sample 30, FBS 104 mg/mg ClO2, 30.0 min, initial 240 ppm, nominal and corrected 7200 ppm-min
  Log Reduction in Organism Count: 7.1 log
[3]; Sample 31, FBS 104 mg/mg ClO2, 60.0 min, initial 240 ppm, nominal and corrected 14400 ppm-min
  Log Reduction in Organism Count: 7.1 log
[4]; Sample 17, FBS 131 mg/mg ClO2, 15.0 min, initial 191 ppm, nominal 2865, corrected 2236 ppm-min
  Log Reduction in Organism Count: 8.2 log
[4]; Sample 18, FBS 131 mg/mg ClO2, 40.0 min, initial 191 ppm, nominal 7640, corrected 5559 ppm-min
  Log Reduction in Organism Count: 8.2 log
[4]; Sample 19, FBS 104 mg/mg ClO2, 15.0 min, initial 240 ppm, nominal and corrected 3600 ppm-min
  Log Reduction in Organism Count: 8.2 log
[4]; Sample 20, FBS 104 mg/mg ClO2, 30.0 min, initial 240 ppm, nominal and corrected 7200 ppm-min
  Log Reduction in Organism Count: 8.2 log
[4]; Sample 21, FBS 104 mg/mg ClO2, 60.0 min, initial 240 ppm, nominal and corrected 14400 ppm-min
  Log Reduction in Organism Count: 8.2 log
[4]; mixed PA/MRSA biofilm, with FBS
  corrected dose rate resulting in complete kill: ≥ 2000 ppm-rain
